{"source": "patent US10537575B2", "about": "“Phosphodiesterase inhibitors to repair brain and/or retinal injury in human newborns” (priority 2016, dated 2020)", "experiment": "Body weight and animal deaths in Vannucci rat model of term neonatal HIE", "protocol": "A well-established Vannucci rat model of term neonatal HIE, which combined a left common carotid artery ligation and a 2 hour exposure to hypoxia (8% oxygen) in 10-day-old (P10) rat pups, was used for the experiments, since this model is generally recognized to mimic the brain injuries observed in human term asphyxiated newborns. Briefly, the 10-day-old male Long-Evans rat pups were weighed and then deeply anesthetized with an intraperitoneal injection of fentanyl (0.2 mg/kg) and midazolam (1 mg/kg) to the point of unresponsiveness to noxious stimulation. Lidocaine-prilocaine cream (EMLA®; AstraZeneca Inc.) was applied to the ventral neck skin 30 minutes before surgery. The skin was cleaned with 2% chlorhexidine solution followed by 70% alcohol. A vertical incision was made along the ventral surface of the neck. The left common carotid artery was located, isolated, and then ligated with a single tight suture. Following the unilateral ligation, the skin incision was closed with an adhesive (n-butyl cyanoacrylate; 3 M VetBond Tissue Adhesive®; 3 M USA). The anesthesia was reversed with an intraperitoneal injection of naloxone (0.1 mg/kg) and flumazenil (1 mg/kg). […] For each rat pup, anesthesia time and surgical time were kept to a minimal time of less than 5-10 minutes. The pups were allowed to recover for approximately 1.5 h after surgery and then were placed in a sealed hypoxia chamber (Plastic Concepts, North Billerica, USA). The sealed chamber was infused with nitrogen until a level of 8% oxygen was reached, which was maintained for 2 h (oxygen analyzer model 600, Engineered Systems & Designs, Newark, Del.). The pups were allowed to recover for 30 minutes and then were returned to their cages with the mother. The rats undergoing the whole procedure were considered as the hypoxic-ischemic (HI) group (n=10-12 animals/groups). Sham operated rat pups (identical procedure as the HI group, but not the ligation and hypoxia) served as the control group (n=10-12 animals/groups). The sample size of the current study was a sample size of convenience, subject to restrictions imposed by the institutional ethics committee that reviewed it, and based on the principles of the 3Rs (replacement, reduction, and refinement). Sham rat pups received the same sedation as HI rat pups permitting to control for the effect of sedation on the brain. Normal body temperature of both sham and HI rat pups, while they were separated from the mother, was maintained during the whole procedure (i.e., surgery±hypoxia) using warming blankets (Cincinnati Sub-Zero, Cincinnati, USA).", "data": [{"smiles": "CCCc1nn(C)c2c(=O)[nH]c(-c3cc(S(=O)(=O)N4CCN(C)CC4)ccc3OCC)nc12", "note": "[sildenafil]", "values": [{"measurement": "incidence of animal deaths", "setting": "HI group, sildenafil 2 mg/kg", "result": "4/12"}, {"measurement": "incidence of animal deaths", "setting": "HI group, sildenafil 10 mg/kg", "result": "2/11"}, {"measurement": "incidence of animal deaths", "setting": "HI group, sildenafil 50 mg/kg", "result": "3/11"}, {"measurement": "incidence of animal deaths", "setting": "sham groups", "result": "no animals died"}]}]}
